{"source": "patent EP0137294A2", "about": "“Gonadoliberin and gonadoliberin agonists in the treatment of metabolic diseases due to too small a parathormone level” (HOECHST AKTIENGESELLSCHAFT, priority 1983, dated 1985)", "key": {"[1]": {"conditions": "je nach Test; literature (Vitamins and Hormons 38, 1980; J. Med. Chem. 25, 1982); cited from earlier work"}, "Parathormon": {"test_system": "Parathormon", "assay": "Plasma levels of parathormone and Ca2+ in Ca2+-infused anaesthetised rats after i.v. injection", "type": "in vivo, Wistarratten", "conditions": "for Stimulierung des PTH: Ratten", "description": "(§1) In Ratten wurde durch eine Ca^2+-Gluconat-Infusion der Plasma-Ca^2+-Spiegel erhöht. Durch diese Infusion wird der PTH-Spiegel suppremiert (The New England J. Med. 307, 1982, S. 226 - 228). Eine Bolusinjektion der Gonadoliberinagonisten erhöhte jedoch signifikant den PTH-Spiegel gegenüber den Kontrollen und potenzierte das Plasma-Ca^2+. Das 30 Minuten nach der Injektion der Gonadoliberinagonisten erhöhte PTH bewirkte nach 60 Minuten einen signifikanten Serum-Ca^2+-Anstieg. Daß diese Beeinflußung des Plasma-Ca^2+-Spiegels durch endogenes PTH oder PTH selbst einen Einfluß auf den Blutdruck hat, wurde an einer Frau mit zu hohem Blutdruck überprüft. Nach einmaliger intranasaler Gabe von 100 mcg Gonadoliberin, was bei einer Resorptionsrate von 2 - 5 % also nur etwa 2 - 5 mcg resorbierten Gonadoliberins entspricht, konnte der erhöhte Blutdruck 8 Stunden lang stark gesenkt werden.\nZwei Gruppen von je 31 Wistarratten wurden mit Pentobarbital (45 mg/kg i.p.) narkotisiert. Man entnahm von allen Tieren eine Blutprobe (Ausgangswert). […] Nach 30, 60, 90, 120 und 180 Minuten wurde ein Teil der Tiere getötet und entblutet. Das Blutserum wurde auf Ca^2+ und Parathormon untersucht.\nIn beiden-Figuren ist bei den einzelnen Meßpunkten die Anzahl n der Messungen sowie die Standardabweichung des Meßwertes (graphisch) angegeben."}, "[2]": {"assay": "Blood pressure lowering in a hypertensive person after intranasal dosing", "type": "in vivo, Mensch", "conditions": "for systolischer Blutdruck: hypertensive person, 100 µg intranasal, baseline etwa 150 mm Hg", "description": "as §1\nEine hypertensive, 48 Jahre alte Frau, deren Bluthochdruck mit ß-Blockern behandelt wird, setzte ihre Be-.handlung am Versuchstag aus. Versuchsbeginn: 17.00 Uhr.\nDer systolische Blutdruck von etwa 150 mm Hg sank nach intranasaler Gabe von 100 µg Gonadoliberin innerhalb von 30 Minuten auf etwa 125 mm Hg, blieb 90 Minuten bei 125 mm Hg und stieg dann für die nächsten 4 Stunden auf 130 mm Hg. Nach einer 8-stündigen Bettruhe, während der die Versuchsperson ausgezeichnet schlief, war der Blutdruck auf etwa 137 mm Hg gestiegen."}, "[3]": {"assay": "Treatment of muscle pain (McArdle-Erkrankung) in a person, intranasal dosing", "type": "in vivo, Mensch", "description": "[…] mit starken Muskelschmerzen am Oberarm (McArdle-Erkrankung) gab man 100 mcg Gonadoliberin intra- nasal. Die starken Dauerschmerzen verschwanden nach etwa 15 Minuten. Am Anfang der Behandlung wurde mehrmals täglich (3 mal), später 2 mal und dann nur noch einmal täglich appliziert um einer Tachyphylaxie vorzubeugen. […] Der anfangs sehr schwache Blutdruck der Patientin von 90/60 wurde interessanterweise nicht weiter gesenkt, sondern leicht erhöht, so daß er sich während der Therapie auf 110/65 einpendelte. Diese kleinen Gonadoliberindosen wirken also nicht generell blutdrucksenkend ', sondern können auch bei niedrigem Blutdruck blutdruckerhöhend wirken.\nEine Frau, 46 Jahre alt, hatte starke Schmerzen im Oberarm. Der Arm konnte nicht vom Körper weg bewegt werden. Nach einer intranasalen Applikation von 100 µg Gonadoliberin war der Dauerschmerz in Ruhehaltung verschwunden. Der sehr schwache Blutdruck von 90/60 stieg während der Behandlung mit Gonadoliberin auf 110/65. Am ersten Tag wurde insgesamt 3 mal, am zweiten und dritten Tag 2 mal und am vierten und folgenden Tagen nur noch einmal täglich am Morgen therapiert. Im Lauf der Therapie wurden auch die Bewegungsschmerzen weniger und der Arm konnte wieder normal bewegt werden."}, "[4]": {"assay": "Intranasal absorption of Gonadoliberin", "type": "in vivo, Mensch", "conditions": "intranasal dose of 100 mcg, calculated from the Resorptionsrate"}, "Plasma-Glucose": {"test_system": "Plasma-Glucose", "conditions": "Kaninchen, Glucosebolus 500 mg/kg i.v.; 5 ng/kg i.v.; after 70 - 90 Minuten; Verum-Gruppe vs Placebo-Gruppe", "quoted_text": "Der Einfluß auf den Blutzucker. wurde zunächst an Kaninchen überprüft. Kaninchen wurden zur Hemmung des endogen Glucagons mit einem Glucosebolus versehen.\nJe 3 wachen Kaninchen gab man einen Glucosebolus (500 mg/ kg i.v.). […] Nach 10, 30, 40, 50, 60, 70, 80 und 90 Minuten wurde Blut abgenommen und daraus die Blutglucose bestimmt.\nBei den einzelnen Meßpunkten ist jeweils graphisch die Standardabweichung des Meßwertes angegeben (n ist jeweils 3)."}, "[5]": {"conditions": "person with high blood pressure, single intranasal dose of 100 mcg"}}, "note": "“Also recorded” adds a separate entry of the source.", "data": [{"compound": "Cc1cc(C)c(C[C@@H](NC(=O)[C@H](Cc2ccc(O)cc2)NC(=O)[C@H](CO)NC(=O)[C@H](Cc2c[nH]c3ccccc23)NC(=O)[C@H](Cc2cnc[nH]2)NC(=O)[C@@H]2CCC(=O)N2)C(=O)N[C@@H](CC(C)C)C(=O)N[C@@H](CCCNC(=N)N)C(=O)N2CCC[C@H]2C(=O)NCC(N)=O)c(C)c1", "note": "[[D-3-(2.4.6.Trimethylphenyl)-Ala^6]-Gonadoliberin]", "values": [{"measurement": "Wirkung relative to Gonadoliberin (mal stärker)", "setting": "[1]", "value": "noch höhere Aktivitäten"}]}, {"compound": "CC(C)C[C@H](NC(=O)CNC(=O)[C@H](Cc1ccc(O)cc1)NC(=O)[C@H](CO)NC(=O)[C@H](Cc1c[nH]c2ccccc12)NC(=O)[C@H](Cc1cnc[nH]1)NC(=O)[C@@H]1CCC(=O)N1)C(=O)N[C@@H](CCCNC(=N)N)C(=O)N1CCC[C@H]1C(=O)NCC(N)=O", "note": "[Gonadoliberin]", "values": [{"measurement": "Stimulierung des PTH", "setting": "Parathormon; dose 50 ng/kg", "value": "stimulieren"}, {"measurement": "systolischer Blutdruck", "setting": "[2]; after a subsequent 8-hour bed rest", "value": "~137", "unit": "mm Hg"}, {"measurement": "systolischer Blutdruck", "setting": "[2]; maintained for 90 Minuten after the fall", "value": 125, "unit": "mm Hg"}, {"measurement": "systolischer Blutdruck", "setting": "[2]; the following 4 Stunden", "value": 130, "unit": "mm Hg"}, {"measurement": "systolischer Blutdruck", "setting": "[2]; within 30 Minuten", "value": "~125", "unit": "mm Hg"}, {"measurement": "duration of blood pressure lowering", "setting": "[2]; [5]", "value": 8, "unit": "Stunden"}, {"measurement": "erhöhter Blutdruck", "setting": "[2]; [5]", "value": "stark gesenkt"}, {"measurement": "time until the starke Dauerschmerzen disappeared", "setting": "[3]; person with muscle pain in the upper arm (McArdle-Erkrankung), 100 mcg intranasal", "value": "~15", "unit": "Minuten"}, {"measurement": "Bewegungsschmerzen / movement of the arm", "setting": "[3]; person with muscle pain, 100 µg intranasal 3 to 1 times daily, in the course of therapy", "value": "ohne Schmerzen bewegt; also recorded: weniger"}, {"measurement": "Blutdruck", "setting": "[3]; person with muscle pain, 100 µg intranasal, during therapy, baseline 90/60", "value": "110/65"}, {"measurement": "Dauerschmerz in Ruhehaltung", "setting": "[3]; person, upper arm pain, 100 µg intranasal", "value": "verschwunden"}, {"measurement": "resorbiertes Gonadoliberin", "setting": "[4]", "value": "2 to 5", "unit": "µg"}]}, {"compound": "CC(C)C[C@H](NC(=O)[C@@H](Cc1ccc2ccccc2c1)NC(=O)[C@H](Cc1ccc(O)cc1)NC(=O)[C@H](CO)NC(=O)[C@H](Cc1c[nH]c2ccccc12)NC(=O)[C@H](Cc1cnc[nH]1)NC(=O)[C@@H]1CCC(=O)N1)C(=O)N[C@@H](CCCNC(=N)N)C(=O)N1CCC[C@H]1C(=O)NCC(N)=O", "note": "[[D-3-(2-Naphthyl)-Ala^6] Gonadoliberin]", "values": [{"measurement": "Wirkung relative to Gonadoliberin (mal stärker)", "setting": "[1]", "value": "noch höhere Aktivitäten"}]}, {"compound": "[D-Ser(Bu^t) ^6] Gonadoliberin-(1-9)-nonapeptid-ethylamid [Buserelin]", "values": [{"measurement": "Stimulierung des PTH", "setting": "Parathormon; dose 5 ng/kg", "value": "stimulieren"}, {"measurement": "Parathormon im Blutserum", "setting": "Parathormon; Wistarratten, Ca2+-Infusion 30 mg/kg/h, 5 ng/kg i.v., after 30 Minuten, Verum-Gruppe vs Placebogruppe", "value": "signifikant an"}, {"measurement": "Ca^2+-Spiegel im Blutserum", "setting": "Parathormon; Wistarratten, Ca2+-Infusion 30 mg/kg/h, 5 ng/kg i.v., after 60 Minuten, Verum-Gruppe vs Placebogruppe", "value": "deutlich erhöht"}, {"measurement": "Blutglucosewerte", "setting": "Plasma-Glucose", "value": "signifikant erhöht"}]}]}
